Values joined by “and” are separate entries in the source; they are usually repeats but may differ in a detail not shown here. Identical values can stand only once. “Also recorded” adds a separate entry of the source.

Consider 5 compounds from PMC9572942, “The Discovery of Small Allosteric and Active Site Inhibitors of the SARS-CoV-2 Main Protease via Structure-Based Virtual Screening and Biological Evaluation” (Molecules, 2022).

What all share (format): biochemical
Test [1] addresses T1, SARS-CoV-2 M^pro enzyme (Severe acute respiratory syndrome coronavirus 2, UniProt P0DTD1). The experiment in a line: Inhibition kinetic study (Lineweaver–Burk, FRET assay). To be noted: for inhibition mechanism: Lineweaver–Burk plot; for Ki: from slope of Lineweaver–Burk curves vs. inhibitor concentration, read-out: Ki.
Test [2] has as its target T1, SARS-CoV-2 M^pro enzyme. Nature of the test: FRET-based enzyme assay and IC50 determination. Particulars: for IC50: 4.6 μM enzyme, HEPES pH 6.5, read-out: IC50; for inhibition at 100 µM: 100 μM compound, in Figure 5; for inhibition at 200 µM: 200 μM compound.
The target in test [3] is T1, SARS-CoV-2 M^pro enzyme. The experiment in a line: Promiscuity tests (pre-incubation, 10-fold enzyme concentration, BSA buffer). To be noted: 100 μM compound.
Setting [4] is: 4.6 μM enzyme, read-out: Inhibition % at 100 μM at 4.6 μM enzyme concentration.
[5] abbreviates: 46 μM enzyme (10-fold), read-out: Inhibition % at 100 μM at 46 μM enzyme concentration.
[6] abbreviates: 15 min pre-incubation with enzyme, read-out: Inhibition % at 100 μM with 15 min pre-incubation.
[7] abbreviates: no BSA, read-out: Inhibition % at 100 μM without BSA in assay buffer.
Setting [8] is: pre-incubation test, read-out: Inhibition % at 100 μM without pre-incubation.
[9] abbreviates: read-out: Inhibition % at 100 μM with BSA in assay buffer, BSA in 20 mM HEPES pH 6.5, read-out: Inhibition % at 100 μM with 1g/mL BSA in assay buffer.

In the case of `CN(CCCO)c1cc2c3c(cccc3n1)C(=O)c1ccccc1-2` [GR04], on SARS-CoV-2 M^pro enzyme [1], the inhibition mechanism entry is on record as “noncompetitive model; also recorded: noncompetitive inhibition mechanism”. The Ki on SARS-CoV-2 M^pro enzyme [1] is 298 µM. In addition, the IC50 at SARS-CoV-2 M^pro enzyme [2] worked out at 346 ± 10 µM. In addition, the inhibition at 100 µM is 35% on SARS-CoV-2 M^pro enzyme [2]; 33.5% at SARS-CoV-2 M^pro enzyme [3] (setting [4]); 33.9% at SARS-CoV-2 M^pro enzyme [3] (setting [5]); 34.3% on SARS-CoV-2 M^pro enzyme [3] (setting [6]); 33% at SARS-CoV-2 M^pro enzyme [3] (setting [7]); 35.4% on SARS-CoV-2 M^pro enzyme [3] (setting [8]). Besides, on SARS-CoV-2 M^pro enzyme [3] (setting [9]), the inhibition at 100 µM is 35%. Besides, the inhibition at 200 µM against SARS-CoV-2 M^pro enzyme [2] stood at 61%.

`COC(=O)C1C(O)=C2C(=CC1C)Nc1ccccc1NC2c1ccc2ccccc2c1` (stereo not shown) [CD06]: the IC50 on SARS-CoV-2 M^pro enzyme [2] came out at 226 ± 17.5 µM.

Turning to `O=C(CSc1cnc2ccccc2n1)NC1CCCC1` [CB03], the inhibition mechanism result against SARS-CoV-2 M^pro enzyme [1] is recorded as “competitive mechanism”. The inhibition at 100 µM at SARS-CoV-2 M^pro enzyme [3] (setting [4]) worked out at 15%; at SARS-CoV-2 M^pro enzyme [3] (setting [5]), 13.1%; on SARS-CoV-2 M^pro enzyme [3] (setting [6]), 14.2%; at SARS-CoV-2 M^pro enzyme [3] (setting [7]), 15.5%; at SARS-CoV-2 M^pro enzyme [3] (setting [8]), 15.1%; at SARS-CoV-2 M^pro enzyme [3] (setting [9]), 17.3%.

With `CCCc1nc2c(o1)OC(N)=C(C#N)[C@H]2c1cccc(O)c1` [GR20], at SARS-CoV-2 M^pro enzyme [1], the inhibition mechanism result is given as “mix inhibition model; also recorded: mixed inhibition mode”. In addition, on SARS-CoV-2 M^pro enzyme [1], the Ki was 89 µM. The IC50 at SARS-CoV-2 M^pro enzyme [2] is 92 µM and 91.8 µM. For the same compound, the inhibition at 100 µM at SARS-CoV-2 M^pro enzyme [3] (setting [4]) turned out to be 48.6%; on SARS-CoV-2 M^pro enzyme [3] (setting [5]), 48%; on SARS-CoV-2 M^pro enzyme [3] (setting [7]), 50%; on SARS-CoV-2 M^pro enzyme [3] (setting [9]), 51.4%.

As for `O=C(NC1CCNCC1)c1[nH]ncc1NC(=O)c1c(Cl)cccc1Cl` [AT7519, reference compound], at SARS-CoV-2 M^pro enzyme [2], the inhibition at 100 µM stood at 8% and the inhibition at 200 µM is 18%.

Usually Ki stands for a dissociation constant, usually derived from enzyme kinetics or from competition with a known ligand. Broadly, the IC50 is the concentration at which inhibition is half-maximal.
